# Measured values from US9980973B2, “Bicyclic heterocycle compounds and their uses in therapy” (ASTEX THERAPEUTICS LIMITED, priority 2012, dated 2018).
# Structures can show the parent of a compound that is named as a salt. Where two headings read alike, the source gives them in different places.
# Legend:
# [1] = test system: EVSA-T (human breast carcinoma); experiment: Anti-proliferative activity, Alamar Blue assay, EVSA-T; format: cell-based
# [2] = target: T1, BIR3 domain of human XIAP (Homo sapiens, UniProt P98170); experiment: XIAP in vitro competitive displacement binding assay (fluorescence polarization); settings: for inhibition at 0.04 µM: 1 h, PI at 0.04 μM, read-out: Xiap IC50 or PI μM (PI)
# T1 construct: BIR3 domain of human XIAP (residues 252-350) fused to a His-tag; His-tag (cleaved yes); made in house; host or cells: Escherichia coli
# [3] = Homo sapiens, EVSA-T, 72 h, EVSA-T cells, 72 hours, Alamar Blue, read-out: EVSA-T prolif
# [4] = Homo sapiens, EVSA-T, read-out: EC50 in EVSA-T cell line assays
# [5] = plain number = IC50, average where more than one data point, read-out: Xiap IC50 or PI μM (IC50)
# T1 sequence (P98170 252-350): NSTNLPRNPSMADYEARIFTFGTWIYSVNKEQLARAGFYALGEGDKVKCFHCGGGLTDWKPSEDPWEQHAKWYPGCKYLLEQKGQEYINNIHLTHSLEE
Compound,"EC50 [1, 3] [nM]","EC50 [1, 4] [nM]",inhibition at 0.04 µM [2] [%],"IC50 ([2]; or at least 50% inhibition of the activity at 0.1 μM, read-out: IC50 in the XIAP assay) [µM]","IC50 [2, 5] [µM]","EC50 ([1]; EVSA-T cells, 72 hours, Alamar Blue, hydrochloride, read-out: EVSA-T prolif) [nM]"
"C[C@@H]1CN(CC(=O)N2CC(C)(C)c3ncc(Cc4ccc(F)cc4)cc32)[C@@H](CN2CCOC[C@H]2CF)CN1 [Example 19, 2-[(2R,5R)-2-{[(3S)-3-(Fluoromethyl)morpholin-4-yl]methyl}-5-methylpiperazin-1-yl]-1-{6-[(4-fluorophenyl)methyl]-3,3-dimethyl-1H,2H,3H-pyrrolo[3,2-b]pyridin-1-yl}ethan-1-one dihydrochloride]",0.65,< 1000,43,,,
"C[C@@H]1CN(CC(=O)N2CC(C)(C)c3ncc(Cc4ccc(F)cc4)cc32)[C@@H](CN2CCNC(=O)C2)CN1 [Example 42, 4-{[(2R,5R)-1-(2-{6-[(4-Fluorophenyl)methyl]-3,3-dimethyl-1H,2H,3H-pyrrolo[3,2-b]pyridin-1-yl}-2-oxoethyl)-5-methylpiperazin-2-yl]methyl}piperazin-2-one dihydrochloride]",11,< 1000,44,,,
"COC[C@@H]1COCCN1C[C@H]1CN[C@H](C)CN1CC(=O)N1CC(C)(C)c2ncc(Cc3ccc(F)cc3)cc21 [Example 1, 1-{6-[(4-Fluorophenyl)methyl]-3,3-dimethyl-1H,2H,3H-pyrrolo[3,2-b]pyridin-1-yl}-2-[(2R,5R)-2-{[(3R)-3-(methoxymethyl)morpholin-4-yl]methyl}-5-methylpiperazin-1-yl]ethan-1-one dihydrochloride]",2.9,< 1000,35,,,
"C[C@@H]1CN(CC(=O)N2CC(C)(C)c3cc(C#N)c(Cc4ccc(F)cc4)cc32)[C@@H](CN2[C@H](C)COC[C@H]2C)CN1 [Example 92, 1-{2-[(2R,5R)-2-{[(3R,5R)-3,5-Dimethylmorpholin-4-yl]methyl}-5-methylpiperazin-1-yl]acetyl}-6-[(4-fluroophenyl)methyl]-3,3-dimethyl-2,3-dihydro-1H-indole-5-carbonitrile dihydrochloride]",2.7,< 1000,54,,,
"COC[C@]1(C)COCCN1C[C@H]1CN[C@H](C)CN1CC(=O)N1CC(C)(C)c2cnc(Cc3ccc(F)cc3F)cc21 [Example 97, 1-{6-[(2,4-Difluorophenyl)methyl]-3,3-dimethyl-1H,2H,3H-pyrrolo[3,2-c]pyridin-1-yl}-2-[(2R,5R)-2-{[(3R)-3-(methoxymethyl)-3-methylmorpholin-4-yl]methyl}-5-methylpiperazin-1-yl]ethan-1-one dihydrochloride]",2.3,< 1000,44,,,
"C[C@@H]1CN(CC(=O)N2CC(C)(C)c3ncc(Cc4ccc(F)cc4)cc32)[C@@H](CN2CCNC(=O)[C@H]2C)CN1 [Example 35, (3R)-4-{[(2R,5R)-1-(2-{6-[(4-Fluorophenyl)methyl]-3,3-dimethyl-1H,2H,3H-pyrrolo[3,2-b]pyridin-1-yl}-2-oxoethyl)-5-methylpiperazin-2-yl]methyl}-3-methylpiperazin-2-one]",1.9,< 1000,54,< 0.1,,
"CCCC(O)c1cnc2c(c1)N(C(=O)CN1C[C@@H](C)NC[C@@H]1CN1[C@H](C)COC[C@H]1C)CC2(C)C (single isomer, unassigned) [Example 101, 2-[(2R,5R)-2-{[(3R,5R)-3,5-Dimethylmorpholin-4-yl]methyl}-5-methylpiperazin-1-yl]-1-[6-(1-(R or S)-hydroxybutyl)-3,3-dimethyl-1H,2H,3H-pyrrolo[3,2-b]pyridin-1-yl]ethan-1-one dihydrochloride]",31,< 1000,47,,,
"C[C@@H]1CN(CC(=O)N2CC(C)(C)c3ncc(Cc4ccc(F)cc4)cc32)[C@@H](CN2CCC[C@@H]2C(F)(F)F)CN1 [Example 38, 1-{6-[(4-Fluorophenyl)methyl]-3,3-dimethyl-1H,2H,3H-pyrrolo[3,2-b]pyridin-1-yl}-2-[(2R,5R)-5-methyl-2-{[(2R)-2-(trifluoromethyl)pyrrolidin-1-yl]methyl}piperazin-1-yl]ethan-1-one]",34,< 1000,,,0.48,
"C[C@@H]1CN(CC(=O)N2CC(C)(C)c3ncc(Cc4ccc(F)cc4F)cc32)[C@@H](CN2CCOC[C@]2(C)CO)CN1 [Example 57, 1-{6-[(2,4-Difluorophenyl)methyl]-3,3-dimethyl-1H,2H,3H-pyrrolo[3,2-b]pyridin-1-yl}-2-[(2R,5R)-2-{[(3S)-3-(hydroxymethyl)-3-methylmorpholin-4-yl]methyl}-5-methylpiperazin-1-yl]ethan-1-one, dihydrochloride]",2.6,< 1000,41,,,
"C[C@@H]1CN(CC(=O)N2CC(C)(C)c3ncc(Cc4ccc(F)cc4)cc32)[C@@H](CN2CCOCC2(C)C(=O)O)CN1 (stereo partly drawn) [Example 59, 4-{[(2R,5R)-1-(2-{6-[(4-Fluorophenyl)methyl]-3,3-dimethyl-1H,2H,3H-pyrrolo[3,2-b]pyridin-1-yl}-2-oxoethyl)-5-methylpiperazin-2-yl]methyl}-3-methylmorpholine-3-carboxylic acid, dihydrochloride]",42,< 1000,,,0.34,
"CCC(F)(F)c1cnc2c(c1)N(C(=O)CN1C[C@@H](C)NC[C@@H]1CN1[C@H](C)COC[C@H]1C)CC2(C)C [Example 43, 1-[6-(1,1-Difluoropropyl)-3,3-dimethyl-1H,2H,3H-pyrrolo[3,2-b]pyridin-1-yl]-2-[(2R,5R)-2-{[(3R,5R)-3,5-dimethylmorpholin-4-yl]methyl}-5-methylpiperazin-1-yl]ethan-1-one, dihydrochloride]",8.3,< 1000,62,,,
"C[C@@H]1CN(CC(=O)N2CC(C)(C)c3ncc(Cc4ccc(F)cc4)cc32)[C@@H](CN2CCCCC2C(F)(F)F)CN1 (single isomer, unassigned) [Example 24, 1-{6-[(4-Fluorophenyl)methyl]-3,3-dimethyl-1H,2H,3H-pyrrolo[3,2-b]pyridin-1-yl}-2-[(2R,5R)-5-methyl-2-{[2-([R or S]trifluoromethyl)piperidin-1-yl]methyl}piperazin-1-yl]ethan-1-one hydrochloride]",,< 1000,,,0.13,13
"C[C@@H]1CN(CC(=O)N2CC(C)(C)c3ccc(Cc4ccc(F)cc4)cc32)[C@@H](CN2[C@H](C)COC[C@H]2C)CN1 [Example 49, 2-[(2R,5R)-2-{[(3R,5R)-3,5-Dimethylmorpholin-4-yl]methyl}-5-methylpiperazin-1-yl]-1-{6-[(4-fluorophenyl)methyl]-3,3-dimethyl-2,3-dihydro-1H-indol-1-yl]ethan-1-one, dihydrochloride]",1.1,< 1000,44,,,
"C[C@@H]1CN(CC(=O)N2CC(C)(C)c3ncc(Cc4ccc(F)cc4)cc32)[C@@H](CN2C[C@@H]3C[C@H]2CO3)CN1 [Example 7, 1-{6-[(4-Fluorophenyl)methyl]-3,3-dimethyl-1H,2H,3H-pyrrolo[3,2-b]pyridin-1-yl}-2-[(2R,5R)-5-methyl-2-[(1S,4S)-2-oxa-5-azabicyclo[2.2.1]heptan-5-ylmethyl]piperazin-1-yl]ethan-1-one dihydrochloride]",6.2,< 1000,,,0.16,
